Test results published in patent publication US20230085263A1, “TASTEFUL NATURAL SWEETENER AND FLAVOR” (EPC Natural Products Co., Ltd., priority 2018, published 2023).
Entries after “also recorded” stand apart in the source; their conditions may differ.

Legend:
[1] = Degree of kokumi with thickeners carrageenan, gellan gum, Tamarind gum (Examples 168-170); parameters: species or system people; conditions: in vivo
Procedure: Carrageenan was added to pure water to prepare several carrageenan solutions with a concentration gradient as standard solutions for judging the degree of kokumi of the carrageenan solutions. […] Method: For evaluation of the degree of kokumi, the sample solutions (described above) were tested by a panel of four people. […] The tester was allowed to re-taste, and then made judgment. […] Gellan gum was added to pure water to prepare several gellan gum solutions with a concentration gradient as standard solutions for judging the degree of kokumi of the gellan gum solutions. […] Method: For evaluation of the degree of kokumi, the sample solutions (described above) were tested by a panel of four people. […] The tester was allowed to re-taste, and then made judgment. […] Tamarind gum was added to pure water to prepare several Tamarind gum solutions with a concentration gradient as standard solutions for judging the degree of kokumi of the Tamarind gum solutions. […] Method: For evaluation of the degree of kokumi, the sample solutions (described above) were tested by a panel of four people. […] The tester was allowed to re-taste, and then made judgment.

[2] = Kinetics of reaction in dependence of pH-conditions: degradation of Phe and Reb-A, Gluc, Xyl, Suc (HPLC/MS); conditions: KH2PO4 Buffer, 1.0 h, 120° C.; for Degradation: reaction of Phe and Gluc; for % formation from degraded Phe: reaction of Phe and Suc, n.d. = not detected
Procedure: All samples were analyzed by HPLC/MS using following conditions.
The mobile phase consisted of (A) 0.1% HCOOH (v/v) and (B) AcCN. A gradient of 5% (B) to 15% (B) was applied between 0 min to 15 min. Between 15 and 20 min (B) was increased to 45% which was kept for 5 min. Detection consisted of UV/VIS-DAD (205 nm, 254 nm, 450 nm) coupled to ESI-MS (pos mode, 300° C., TIC from m/z 120-1200, fragmentor 100).
Quantitative Evaluation was Performed Using External Standardization.

[3] = Sensory evaluation of combinations of NHDC, EPCalin (Thaumatin) and Combination of GSGs and SGs in water (Example 234); assay type: in vivo; conditions: 4.5 ppm Thaumatin and/or 50 ppm GSGs and SGs
Procedure: 4.5 ppm Thaumatin (equivalent to 10 ppm EPCalin) were dissolved in water. Increasing amounts of NHDC (1-5 ppm) were added to the solution and the sensory properties were evaluated.
50 ppm (GSGs and SGs) were dissolved in water. Increasing amounts of NHDC (1-5 ppm) were added to the solution and the sensory properties were evaluated.
50 ppm (GSGs and SGs) and 4.5 ppm Thaumatin (equivalent to 10 ppm EPCalin) were dissolved in water. Increasing amounts of NHDC (1-5 ppm) were added to the solution and the sensory properties were evaluated.
Sweetness intensity was rated on 5-point scale

[4] = Stevia-derived MRPs with NHDC and Thaumatin in Red Bull sugarfree (Example 240); assay type: in vivo; conditions: 150 μl of sample in 100 ml Redbull sugar free
Procedure: Stevia-derived MRPs (Reference): 0.67 g xylose, 0.33 g phenylalanine and 4 g Stevia extract TSG95 were dissolved in 2.5 g deionized water. The solution was heated at about 100° C. for 2 h. After the reaction was complete, the slurry was diluted with 25 g water.
(§1) Stevia-derived MRPs by Combination of GSGs and SGs: 0.67 g xylose, 0.33 g phenylalanine, 4 g SGA (Combination of GSGs and SGs) were dissolved in 2.5 g deionized water. The solution was heated at about 100° C. for 2 h. After the reaction was complete, the slurry was diluted with 25 g water.
as §1, with “SGs and NHDC:” for “SGs:”, “SGs) and 3 ppm (=82.5 μg) NHDC” for “SGs)”, “in” for “in 2.5 g deionized”
as §1, with “by SGA (Combination” for “by Combination”, “and SGs), NHDC and Thaumatin:” for “and SGs:”, “and SGs), 3 ppm (=82.5 μg) NHDC and 5 ppm (=302.5 μg EPCalin 45%) Thaumatin” for “and SGs)”
150 μl of the each sample was added to 100 ml Redbull sugar free and mixed. The taste profiles of the samples were compared. […]

[5] = Assay to test reducing power (iron-III reduction test for anti-oxidant potential); assay type: physicochemical; conditions: combinations of amino acids and Reb-A, 100° C., 0, 2.5 or 5.0 hours, diluted 1:10
Procedure: Assay to Test Reducing Power
0.2 M Sodium phosphate buffer, pH=6.6; 500 mg Potassium ferric(III)cyanide/50 mL water, 10% Trichloroacetic acid; 20 mg Iron-III-Chloride/20 mL water; Calibration samples were prepared with Ascorbic acid in a concentration of 0-100 μg/mL 0.2 M Sodium phosphate buffer, pH=6.6 (freshly prepared); as negative control sample water was used.
Samples in aqueous solution were used as such or diluted in 0.2 M Sodium phosphate buffer, pH=6.6.
A 1 mL sample (or calibration standard) was mixed with 1 mL 0.2 M Sodium phosphate buffer, pH=6.6 and 1 mL Potassium ferricyanide solution. The sample was incubated and protected from light at 50° C. for 20 min.
To the solution was added 1 mL Trichloroacetic acid with thorough mixing.
A 1 mL of the mixture was diluted with 1 mL H2O and 0.2 mL Iron-Ill-chloride and reacted for 10 minutes; The absorbance was then determined at 700 nm against H2O.
10 mM of amino acid and/or 10 mM sugar were dissolved in 10 ml 0.1 mM KH2PO4-buffer, pH=7.8. […]
1 ml sample (or calibration standard) solution) was mixed with 0.2 M Sodium phosphate buffer (pH=6.6) and 1 ml Potassium ferric(III)cyanide solution in water (1% w/v) and incubated at 50° C. for 20 minutes. […] The sample was incubated for 10 minutes and absorbance read at 700 nm against a water control. […]
Quantification was performed by linear regression of calibration test results for ascorbic acid. […]

[6] = DPPH radical-scavenging activity (DPPH test for anti-oxidant potential); assay type: physicochemical; conditions: combinations of amino acids and Reb-A, 100° C., 0, 2.5 or 5.0 hours, diluted 1:10
Procedure: Assay to Rest DPPH Radical-Scavenging Activity
1 mg 1,1-Diphenyl-2-picrylhydrazyl radical (DPPH)/ml ethanol, dilution to assay concentration were prepared in ethanol (40 μg/mL); Calibration samples were prepared with Ascorbic acid in a concentration of 0-10 μg/mL; as a negative control sample, water was used.
Samples in aqueous solution were used as such or diluted with water.
A 0.1 ml sample (or calibration standard) was mixed with 3.9 ml solution of DPPH° (100 μMolar) and reacted while protected from light at room temperature for 30 min. Absorbance was determined at 517 nm against ethanol.
10 mM of amino acid and/or 10 mM sugar were dissolved in 10 ml 0.1 mM KH2PO4-buffer, pH=7.8.
The samples were kept at 100° C. in sealed glass vials (Pyrex 15 ml with screw caps) for 0 (before reaction), 2.5 or 5.0 hours. Thereafter the samples were transferred to an ice water bath and cooled down to room temperature. These samples were diluted 1:10 and used for the test assay for anti-oxidant potential. […]
0.2 ml sample (or calibration standard) solution was mixed with 0.2 ml solution of DPPH° (0.1 mM) and 3.6 ml methanol. […] After 3 minutes the absorbance at 517 nm was obtained against ethanol. Quantification was performed by linear regression of calibration test results for ascorbic acid. […]

Tamarind gum
concentration above which taste like starch paste can be clearly felt [1]: exceeds 1400 ppm

OC[C@H]1OC(O)[C@H](O)[C@@H](O)[C@@H]1O (stereo partly shown) [Glu]
Degradation ([2]; pH = 5.5): 3.65
Degradation ([2]; pH = 7.0): 4.6
Degradation ([2]; pH = 8.5): 7.62

COc1ccc(CCC(=O)c2c(O)cc(O[C@@H]3O[C@H](CO)[C@@H](O)[C@H](O)[C@H]3O[C@@H]3O[C@@H](C)[C@H](O)[C@@H](O)[C@H]3O)cc2O)cc1O [NHDC, Neohesperidin dihydrochalcone]
sensory properties (sweetness, onset, lingering, mouth-feel) [3]: long lasting lingering; also recorded: boosts the lingering
taste profile in sugarfree beverage [4]: improved the mouth-feel and harmony of taste impression yielding a substantially improved taste profile

gellan gum
concentration above which taste like starch paste can be clearly felt [1]: exceeds 1400 ppm

O=C(O)[C@H](Cc1ccccc1)NCC(=O)[C@@H](O)[C@H](O)[C@H](O)CO [MRI (Phe-Glu)]
% formation from degraded Phe ([2]; pH = 5.5): <0.10%
% formation from degraded Phe ([2]; pH = 7.0): 0.54%
% formation from degraded Phe ([2]; pH = 8.5): 0.84%

NC(Cc1ccccc1)C(=O)O (single isomer, unassigned) [Phe]
Degradation ([2]; pH = 5.5): 2.26
Degradation ([2]; pH = 7.0): 2.18
Degradation ([2]; pH = 8.5): 4.24

C=C1C[C@@]23CC[C@H]4[C@@](C)(CCC[C@@]4(C)C(=O)O[C@@H]4O[C@H](CO)[C@@H](O)[C@H](O)[C@H]4O)[C@@H]2CC[C@]1(O[C@@H]1O[C@H](CO)[C@@H](O)[C@H](O[C@@H]2O[C@H](CO)[C@@H](O)[C@H](O)[C@H]2O)[C@H]1O[C@@H]1O[C@H](CO)[C@@H](O)[C@H](O)[C@H]1O)C3 [Reb-A, Rebaudioside A]
anti-oxidant properties (active iron-III reduction) [5]: substantial anti-oxidant properties
anti-oxidant properties (radical scavenging) [6]: substantial anti-oxidant properties

carrageenan
concentration above which taste like starch paste can be clearly felt [1]: exceeds 1000 ppm
